The supplement of paper PMC10307832

Legend:
Assay in all cases: relative viability (nuclei count vs DMSO), 5 days (fraction); higher = more cells survive
[1] = compound: NC(=O)[C@@H](CCC(F)(F)F)N(Cc1ccc(-c2ncon2)cc1F)S(=O)(=O)c1ccc(Cl)cc1 [Avagacestat]
Summary of the method: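 Lung cancer cell lines in 1536-well plates were exposed by pinning to five library-drug doses (not always all listed) √10 apart, following an overnight hold at 37 °C. MetaXpress counted Hoechst-stained nuclei from 4× images taken after 5 days without medium change. Viability is the median ratio of treated-well to vehicle-well nuclei across plates. Plates required control CV below 25% and at least one doubling.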

[2] = compound: NC(=O)[C@@H](CCC(F)(F)F)N(Cc1ccc(-c2ncon2)cc1F)S(=O)(=O)c1ccc(Cl)cc1 [Avagacestat] + Cc1cc(Nc2cc(N3CCN(C)CC3)nc(Sc3ccc(NC(=O)C4CC4)cc3)n2)n[nH]1 [Tozasertib] (partner 0.1 µM)
Summary of the method: (§1)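 One day after seeding in 1536-well plates, lung cancer cell lines were dosed by pin tool. Dosing was either single-drug or a fixed anchor-drug dose plus five library-drug doses (not always all listed) in √10 steps. After 5 days, nuclei were stained in one fix-and-stain step and counted on 4× images, and relative viability is the nuclei count of treated wells over that of vehicle wells, given as the median of duplicate plates.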

[3] = compound: NC(=O)[C@@H](CCC(F)(F)F)N(Cc1ccc(-c2ncon2)cc1F)S(=O)(=O)c1ccc(Cl)cc1 [Avagacestat] + COc1cc2c(Oc3ccc(NC(=O)C4(C(=O)Nc5ccc(F)cc5)CC4)cc3F)ccnc2cc1OCCCN1CCOCC1 [Foretinib] (partner 0.25 µM)
Summary of the method: as §1

[4] = compound: NC(=O)[C@@H](CCC(F)(F)F)N(Cc1ccc(-c2ncon2)cc1F)S(=O)(=O)c1ccc(Cl)cc1 [Avagacestat] + Cc1nc(Nc2ncc(C(=O)Nc3c(C)cccc3Cl)s2)cc(N2CCN(CCO)CC2)n1 [Dasatinib] (partner 0.075 µM)
Summary of the method: as §1

[5] = compound: NC(=O)[C@@H](CCC(F)(F)F)N(Cc1ccc(-c2ncon2)cc1F)S(=O)(=O)c1ccc(Cl)cc1 [Avagacestat] + CCNC(=O)c1noc(-c2cc(C(C)C)c(O)cc2O)c1-c1ccc(CN2CCOCC2)cc1 [Luminespib] (partner 0.01 µM)
Summary of the method: as §1

[6] = compound: NC(=O)[C@@H](CCC(F)(F)F)N(Cc1ccc(-c2ncon2)cc1F)S(=O)(=O)c1ccc(Cl)cc1 [Avagacestat] + COc1cccc2cc(-c3nc([C@H]4CC[C@H](C(=O)O)CC4)n4ncnc(N)c34)[nH]c12 [OSI-027] (partner 0.5 µM)
Summary of the method: as §1

[7] = compound: NC(=O)[C@@H](CCC(F)(F)F)N(Cc1ccc(-c2ncon2)cc1F)S(=O)(=O)c1ccc(Cl)cc1 [Avagacestat] + N=C(N)NC(=N)NCCc1ccccc1 [Phenformin] (partner 250 µM)
Summary of the method: as §1

[8] = compound: NC(=O)[C@@H](CCC(F)(F)F)N(Cc1ccc(-c2ncon2)cc1F)S(=O)(=O)c1ccc(Cl)cc1 [Avagacestat] + C[C@@H](Oc1cc(-c2cnn(C3CCNCC3)c2)cnc1N)c1c(Cl)ccc(F)c1Cl [Crizotinib] (partner 1 µM)
Summary of the method: as §1

[9] = compound: NC(=O)[C@@H](CCC(F)(F)F)N(Cc1ccc(-c2ncon2)cc1F)S(=O)(=O)c1ccc(Cl)cc1 [Avagacestat] + CS(=O)(=O)N1CCN(Cc2cc3nc(-c4cccc5[nH]ncc45)nc(N4CCOCC4)c3s2)CC1 [Pictilisib] (partner 1 µM)
Summary of the method: as §1

[10] = compound: NC(=O)[C@@H](CCC(F)(F)F)N(Cc1ccc(-c2ncon2)cc1F)S(=O)(=O)c1ccc(Cl)cc1 [Avagacestat] + Cc1nc(NC(=O)N2CCC[C@H]2C(N)=O)sc1-c1ccnc(C(C)(C)C(F)(F)F)c1 [Alpelisib] (partner 2 µM)
Summary of the method: as §1

[11] = compound: NC(=O)[C@@H](CCC(F)(F)F)N(Cc1ccc(-c2ncon2)cc1F)S(=O)(=O)c1ccc(Cl)cc1 [Avagacestat] + C[C@]1(O)C[C@@H](c2nc(-c3ccc4ccc(-c5ccccc5)nc4c3)c3c(N)nccn32)C1 [Linsitinib] (partner 1 µM)
Summary of the method: as §1

[12] = compound: NC(=O)[C@@H](CCC(F)(F)F)N(Cc1ccc(-c2ncon2)cc1F)S(=O)(=O)c1ccc(Cl)cc1 [Avagacestat] + CC(C)C[C@H](NC(=O)[C@H](Cc1ccccc1)NC(=O)c1cnccn1)B(O)O [Bortezomib] (partner 0.002 µM)
Summary of the method: as §1

[13] = compound: NC(=O)[C@@H](CCC(F)(F)F)N(Cc1ccc(-c2ncon2)cc1F)S(=O)(=O)c1ccc(Cl)cc1 [Avagacestat] + Nc1nc2[nH]cc(CCc3ccc(C(=O)N[C@@H](CCC(=O)O)C(=O)O)cc3)c2c(=O)[nH]1 [Pemetrexed] (partner 0.2 µM)
Summary of the method: as §1

[14] = compound: NC(=O)[C@@H](CCC(F)(F)F)N(Cc1ccc(-c2ncon2)cc1F)S(=O)(=O)c1ccc(Cl)cc1 [Avagacestat] + CS(=O)(=O)CCNCc1ccc(-c2ccc3ncnc(Nc4ccc(OCc5cccc(F)c5)c(Cl)c4)c3c2)o1 [Lapatinib] (partner 2 µM)
Summary of the method: as §1

## NCI-H1623
[1]; 0.08 µM
  relative viability: 1.02
[1]; 0.253 µM
  relative viability: 0.935
[1]; 0.8 µM
  relative viability: 1.1
[1]; 2.53 µM
  relative viability: 0.921
[1]; 8 µM
  relative viability: 1
[2]; first compound 0.08 µM
  relative viability: 0.448
[2]; first compound 0.253 µM
  relative viability: 0.446
[2]; first compound 0.8 µM
  relative viability: 0.456
[2]; first compound 2.53 µM
  relative viability: 0.46
[2]; first compound 8 µM
  relative viability: 0.445
[3]; first compound 0.08 µM
  relative viability: 0.879
[3]; first compound 0.253 µM
  relative viability: 0.95
[3]; first compound 0.8 µM
  relative viability: 1.08
[3]; first compound 2.53 µM
  relative viability: 0.813
[3]; first compound 8 µM
  relative viability: 0.86
[4]; first compound 0.08 µM
  relative viability: 0.525
[4]; first compound 0.253 µM
  relative viability: 0.567
[4]; first compound 0.8 µM
  relative viability: 0.575
[4]; first compound 2.53 µM
  relative viability: 0.511
[4]; first compound 8 µM
  relative viability: 0.577
[5]; first compound 0.08 µM
  relative viability: 0.491
[5]; first compound 0.253 µM
  relative viability: 0.484
[5]; first compound 0.8 µM
  relative viability: 0.913
[5]; first compound 2.53 µM
  relative viability: 0.609
[5]; first compound 8 µM
  relative viability: 0.475
[6]; first compound 0.08 µM
  relative viability: 0.437
[6]; first compound 0.253 µM
  relative viability: 0.454
[6]; first compound 0.8 µM
  relative viability: 0.508
[6]; first compound 2.53 µM
  relative viability: 0.424
[6]; first compound 8 µM
  relative viability: 0.47
[7]; first compound 0.08 µM
  relative viability: 0.576
[7]; first compound 0.253 µM
  relative viability: 0.603
[7]; first compound 0.8 µM
  relative viability: 0.614
[7]; first compound 2.53 µM
  relative viability: 0.577
[7]; first compound 8 µM
  relative viability: 0.63

## NCI-H1563
[1]; 0.08 µM
  relative viability: 0.984
[1]; 0.253 µM
  relative viability: 0.986
[1]; 0.8 µM
  relative viability: 0.968
[1]; 2.53 µM
  relative viability: 0.798
[1]; 8 µM
  relative viability: 0.813
[3]; first compound 0.08 µM
  relative viability: 1.1
[3]; first compound 0.253 µM
  relative viability: 0.999
[3]; first compound 0.8 µM
  relative viability: 0.879
[3]; first compound 2.53 µM
  relative viability: 0.803
[3]; first compound 8 µM
  relative viability: 0.842
[8]; first compound 0.08 µM
  relative viability: 0.883
[8]; first compound 0.253 µM
  relative viability: 0.751
[8]; first compound 0.8 µM
  relative viability: 0.83
[8]; first compound 2.53 µM
  relative viability: 0.801
[8]; first compound 8 µM
  relative viability: 0.708
[4]; first compound 0.08 µM
  relative viability: 0.53
[4]; first compound 0.253 µM
  relative viability: 0.455
[4]; first compound 0.8 µM
  relative viability: 0.484
[4]; first compound 2.53 µM
  relative viability: 0.453
[4]; first compound 8 µM
  relative viability: 0.442
[9]; first compound 0.08 µM
  relative viability: 0.708
[9]; first compound 0.253 µM
  relative viability: 0.629
[9]; first compound 0.8 µM
  relative viability: 0.621
[9]; first compound 2.53 µM
  relative viability: 0.664
[9]; first compound 8 µM
  relative viability: 0.634
[10]; first compound 0.08 µM
  relative viability: 0.925
[10]; first compound 0.253 µM
  relative viability: 0.989
[10]; first compound 0.8 µM
  relative viability: 0.937
[10]; first compound 2.53 µM
  relative viability: 0.934
[10]; first compound 8 µM
  relative viability: 0.8
[5]; first compound 0.08 µM
  relative viability: 0.552
[5]; first compound 0.253 µM
  relative viability: 0.558
[5]; first compound 0.8 µM
  relative viability: 0.575
[5]; first compound 2.53 µM
  relative viability: 0.503
[5]; first compound 8 µM
  relative viability: 0.543
[11]; first compound 0.08 µM
  relative viability: 1.25
[11]; first compound 0.253 µM
  relative viability: 1.26
[11]; first compound 0.8 µM
  relative viability: 1.18
[11]; first compound 2.53 µM
  relative viability: 1.03
[11]; first compound 8 µM
  relative viability: 1
[12]; first compound 0.08 µM
  relative viability: 0.917
[12]; first compound 0.253 µM
  relative viability: 0.821
[12]; first compound 0.8 µM
  relative viability: 0.898
[12]; first compound 2.53 µM
  relative viability: 0.792
[12]; first compound 8 µM
  relative viability: 0.835
[13]; first compound 0.08 µM
  relative viability: 0.811
[13]; first compound 0.253 µM
  relative viability: 0.664
[13]; first compound 0.8 µM
  relative viability: 0.82
[13]; first compound 2.53 µM
  relative viability: 0.711
[13]; first compound 8 µM
  relative viability: 0.683
[6]; first compound 0.08 µM
  relative viability: 0.829
[6]; first compound 0.253 µM
  relative viability: 0.776
[6]; first compound 0.8 µM
  relative viability: 0.736
[6]; first compound 2.53 µM
  relative viability: 0.735
[6]; first compound 8 µM
  relative viability: 0.719
[14]; first compound 0.08 µM
  relative viability: 0.959
[14]; first compound 0.253 µM
  relative viability: 0.806
[14]; first compound 0.8 µM
  relative viability: 0.951
[14]; first compound 2.53 µM
  relative viability: 0.828
[14]; first compound 8 µM
  relative viability: 0.925
[7]; first compound 0.08 µM
  relative viability: 0.665
[7]; first compound 0.253 µM
  relative viability: 0.669
[7]; first compound 0.8 µM
  relative viability: 0.746
[7]; first compound 2.53 µM
  relative viability: 0.646
[7]; first compound 8 µM
  relative viability: 0.658
